Measurements published in the RepoRT retention time repository.

experiment: HILIC, Waters ACQUITY UPLC BEH Amide, 100 × 2.1 mm, 1.7 µm; A: water + 0.125% formic acid + 10 mM ammonium formate; B: 5% water + 95% acetonitrile + 0.125% formic acid + 10 mM ammonium formate; gradient (min/%B) 0/100 2/100 7.7/70 9.5/40 10.25/30 12.75/100 17/100; details: stereoisomer not certain

LC retention time [min]	SMILES
9.58	NC(CCS)C(=O)O (stereo unspecified) [Homocysteine]
9.58	NC(CCSSCCC(N)C(=O)O)C(=O)O (stereo unspecified) [Homocystine]
3.24	COC(=O)CC(O)(CCCC(C)(C)O)C(=O)OC1C(OC)=CC23CCCN2CCc2cc4c(cc2C13)OCO4 (stereo unspecified) [Homoharringtonine]
8.29	NC(CCO)C(=O)O (stereo unspecified) [Homoserine]
5.74	CC=C1C2C=C(C)CC1(N)c1ccc(=O)[nH]c1C2 (stereo unspecified) [Huperzine]
8.71	O=C(O)CCc1ccccc1 [Hydrocinnamic acid]
2.56	CC12CCC(=O)C=C1CCC1C2C(O)CC2(C)C1CCC2(O)C(=O)CO (stereo unspecified) [Hydrocortisone]
8.14	O=C(O)C1CC(O)CN1 (stereo unspecified) [Hydroxyproline]
4.99	O=c1[nH]cnc2nc[nH]c12 [Hypoxanthine]
4.74	COc1ccc(-c2oc3c(CC=C(C)C)c(OC4OC(CO)C(O)C(O)C4O)cc(O)c3c(=O)c2OC2OC(C)C(O)C(O)C2O)cc1 (stereo unspecified) [Icarin]
5.42	CC(=O)C1(O)Cc2c(O)c3c(c(O)c2C(OC2CC(N)C(O)C(C)O2)C1)C(=O)c1ccccc1C3=O (stereo unspecified) [Idarubicin]
0.96	COC1=C(OC)C(=O)C(CCCCCCCCCCO)=C(C)C1=O [Idebenone]
3.17	CC(C(O)c1ccc(O)cc1)N1CCC(Cc2ccccc2)CC1 (stereo unspecified) [Ifenprodil]
5.36	Cc1ccc(NC(=O)c2ccc(CN3CCN(C)CC3)cc2)cc1Nc1nccc(-c2cccnc2)n1 [Imatinib]
4.53	c1c[nH]cn1 [Imidazole]
1.07	O=C1C(c2c(O)[nH]c3ccccc23)=Nc2ccccc21 [Indarubicin]
2.17	CC(C)(C)NC(=O)C1CN(Cc2cccnc2)CCN1CC(O)CC(Cc1ccccc1)C(=O)NC1c2ccccc2CC1O (stereo unspecified) [Indinavir]
1.36	NC(=O)Cc1c[nH]c2ccccc12 [Indole-3-acetamide]
1.24	OCc1c[nH]c2ccccc12 [Indole-3-carbinol]
1.16	O=Cc1c[nH]c2ccccc12 [Indole-3-carboxaldehyde]
1.41	O=C(O)c1c[nH]c2ccccc12 [Indole-3-carboxylic acid]

Further lines, the compound ahead of its results:

SMILES	LC retention time [min]
Nc1nc2c(ncn2C2OC3COP(=O)(O)OC3C2O)c(=O)[nH]1 (stereo unspecified) [Guanosine-3',5'-cyclic monophosphate]	8.39
Nc1nc2c(ncn2C2OC(CO)C(O)C2O)c(=O)[nH]1 (stereo unspecified) [Guanosine]	7.33
CC1CC2C3CC(F)C4=CC(=O)C(Cl)=CC4(C)C3(F)C(O)CC2(C)C1(O)C(=O)CO (stereo unspecified) [Halometasone]	1.12
O=C(CCCN1CCC(O)(c2ccc(Cl)cc2)CC1)c1ccc(F)cc1 [Haloperidol]	2.31
CCCCCCCCCCCCCCCCC(=O)O [Heptadecanoic acid]	3.01
CCCCCC(=O)O [Hexanoic acid]	4.89
CCCCCC(=O)OC(CC(=O)[O-])C[N+](C)(C)C [Hexanoyl-L-carnitine]	5.09
CC(CCCCC(=O)Nc1ccc(C(F)(F)F)cc1)NCCc1cnc[nH]1 (stereo unspecified) [Histamine-trifluoromethyltoluide]	5.3
NCCc1cnc[nH]1 [Histamine]	8.29
NC(Cc1cnc[nH]1)C(=O)O (stereo unspecified) [Histidine]	9.48
NC(N)=NCCCCC(N)C(=O)O (stereo unspecified) [Homoarginine]	9.34
COc1ccc(CCN)cc1OC [Homoveratrylamine]	4.78
COc1ccc2c3c1OC1C(=O)CCC4C(C2)N(C)CCC314 (stereo unspecified) [Hydrocodone]	3.8
CN1CCC23c4c5ccc(O)c4OC2C(=O)CCC3C1C5 (stereo unspecified) [Hydromorphone]	5.22
CNC1CC(c2ccc(Cl)c(Cl)c2)c2ccccc21 (stereo unspecified) [Indatraline]	2.88
